Values quoted from earlier work in patent US20110086017A1, “Medical Food composition and methods for management of inflammatory processes in mammals” (priority 2009, published 2011).

System: plasma exudate at the site of inflammation
Conditions: animal study; by decreasing bradykinin and pre-kallikrein levels

Substance: Bromelain
- plasma exudate at the site of inflammation: dose-dependently reduced plasma exudate
